Laboratory results from ChEMBL document CHEMBL1156576, “Determination of log D via automated microfluidic liquid-liquid extraction” (J Med Chem, 2008).

Tests used:
[1] = physchem; settings: buffer, pH 7.4
[2] = physchem; settings: buffer, pH 7.4; remark: listed apart in the source
[3] = buffer, pH 7.4
[4] = buffer, pH 7.4; remark: listed apart in the source

In the case of `CC(C)N(CC[C@](C(N)=O)(c1ccccc1)c1ccccn1)C(C)C` [(S)-DISOPYRAMIDE], the logD [1] is reported as 0.39 and the logD [2] is reported as 0.52.

Compound `CC(=O)Nc1ccc(O)cc1` [ACETAMINOPHEN] has a logD [1] of 0.27 and a logD [2] of 0.33.

Work on `CN(C)CCC(c1ccc(Cl)cc1)c1ccccn1` (stereo not drawn) [CHLORPHENIRAMINE] yielded a logD [3] of 0.26 and a logD [4] of 0.28.

Compound `NS(=O)(=O)c1cc(C2(O)NC(=O)c3ccccc32)ccc1Cl` (stereo not drawn) [CHLORTHALIDONE] has a logD [1] of 0.85 and a logD [2] of 0.94.

Compound `CN/C(=N/CCSCc1nc[nH]c1C)NC#N` [CIMETIDINE] has a logD [1] of 0.29 and a logD [2] of 0.34.

With `CC(=O)OCC(=O)[C@@]1(O)CC[C@H]2[C@@H]3CCC4=CC(=O)CC[C@]4(C)[C@H]3[C@@H](O)C[C@@]21C` [HYDROCORTISONE ACETATE] the logD [1] was 2.11 and the logD [2] was 2.21.

Work on `CCN(CC)CCNC(=O)c1ccc(N)cc1` [PROCAINAMIDE] yielded a logD [1] of -0.94 and a logD [2] of -0.89.

For `CNC(=C[N+](=O)[O-])NCCSCc1ccc(CN(C)C)o1` [RANITIDINE], the logD [1] was -0.99 and the logD [2] was -0.91.

`CCN(CC)CCNC(=O)c1cc(S(C)(=O)=O)ccc1OC` [TIAPRIDE] gave a logD [1] of -0.9 and a logD [2] of -0.85.
